Data: patent US8962329B2, “Gene cluster” (Shanghai Institute of Organic Chemistry, Chinese Academy of …, priority 2008, dated 2015)
Blank lines part the entries; values can stand above or below the compound they belong to.

Legend:
MLR = conditions: compared with SFA; cited from earlier work
SfaR = test: in vitro activity of purified His-tagged SfaR (reduction / reductive carboxylation) on acyl substrates; format: biochemical, Streptomyces sp A92-309110 (S. flaveolus)
Description: To validate the central role of SfaR for unusual building block supply in the proposed pathway, we first inactivated sfaR by in-frame deletion. […] Secondly, we heterologously expressed and purified the N-terminal 6× His-tagged SfaR to near homogeneity for in vitro studies. As expected, in the presence of NADPH and bicarbonate, crotonyl-S-CoA (FIG. 7, 4) was efficiently converted by SfaR to the major product ethylmalonyl-S-CoA (FIG. 7, 5) along with the shunt product butyryl-S-CoA (FIG. 7, 7). […] To exclude the possibility that the reaction directly occurs on the ACP, SfaO was expressed and purified as a N-terminal 6×His-tagged derivative. […] Thirdly, to detect the substrate flexibility of SfaR, we synthesized the 5-carbon substrate pentenyl-S-CoA.

SfaA = test: AMP PPi assay of the putative meta-hydroxylase SfaA expressed in E. coli; format: biochemical, Streptomyces sp. A92-308110 (S. flaveolus)
Description: Traditional phenylalanine/tyrosine/tryptophan hydroxylation systems all rely on an electrophilic substitution reaction to realize hydroxylation in the electron-rich regions of aromatic systems. On the contrary, the meta-hydroxylation of phenylalanine occurs at the relatively electron-poor meta position of phenylalanine. […] The putative meta-hydroxylase, SfaA, was expressed in E. coli and isolated using standard methods.

Compound: sanglifehrin B
immunosuppressive activity in MLR assays (MLR): higher immunosuppressive activity than SFA

Compound: CC/C=C/C(=O)SCCNC(=O)CCNC(=O)[C@H](O)C(C)(C)COP(=O)(O)OP(=O)(O)OC[C@H]1O[C@@H](n2cnc3c(N)ncnc32)[C@H](O)[C@@H]1OP(=O)(O)O [pentenyl-S-CoA]
Km (SfaR; pentenyl-S-CoA in reductively producing pentanoyl-S-CoA): 1400 µM

Km (SfaR; substrate crotonyl-S-CoA, SfaR, NADPH): 840 µM
Compound: C/C=C/C(=O)SCCNC(=O)CCNC(=O)[C@H](O)C(C)(C)COP(=O)(O)OP(=O)(O)OC[C@H]1O[C@@H](n2cnc3c(N)ncnc32)[C@H](O)[C@@H]1OP(=O)(O)O [crotonyl-S-CoA]

Compound: CC(=O)NCCSC(=O)C(N)Cc1ccccc1 (centres unmarked)
activity of SfaA on the substrate (SfaA): did show activity

Compound: N[C@@H](Cc1ccccc1)C(=O)O [phenylalanine]
activity of SfaA on the substrate (SfaA): no activity
